Data as given in US20240158439A1, “INHIBITORS OF ANTIGEN PRESENTATION BY MHC CLASS II HLA-DRB1*15:01 MOLECULES WITH ENHANCED METABOLIC STABILITY” (Provid Pharmaceuticals Inc., priority 2021, published 2024).
Values joined by “and” are separate entries in the source; they are usually repeats but may differ in a detail not shown here. Equal entries are not always repeated. Where two headings read alike, the source gives them in different places. Blank lines part the entries; values can stand above or below the compound they belong to. Where a SMILES comes first, the peptide text is derived from it. Where no end group is shown, it is not given here. [ ]: non-standard residue; d: D form. The star is where a group is joined. NH(CH2CH2O)4Me = COCCOCCOCCOCCN*; Tic = O=C(O)[C@@H]1Cc2ccccc2CN1; Chg = N[C@H](C(=O)O)C1CCCCC1; NHCH2CH2OMe = COCCN*

How the values were obtained:
[1] = tested on: Goodpasture antigen (α3(IV)NC1); conditions: Huynh et al. 2019; cited from earlier work
[2] = Mouse pharmacokinetics/metabolism study; format: in vivo, C57BL/6J mice
Procedure: The pharmacokinetics/metabolism study was performed in non-fasted C57BL/6J mice. Dose formulation was prepared on the day of treatment, using 10% v/v DMSO solution and 90% sterile water for injection as vehicle. Blood samples were collected at 0.25, 0.5, 1, 2, 4, 6, 8, 12 and 24 hr post-dose (n=9 mice/group, staggered sampling with 3 mice/time point). At each time point, under isoflurane anesthesia approximately 70 μL of blood was collected through retro orbital plexus puncture and transferred into a pre-labeled tube. 50 μL of blood was taken from the prelabeled tube and it was added into a labelled tube containing 200 μL of acetonitrile to precipitate proteins. Immediately, blood samples were vortexed to facilitate mixing of acetonitrile with the blood. Samples were kept on dry ice at −70° C. until analysis. [table] Bioanalysis was performed using fit-for-purpose analytical method using LC-MS/MS method for the quantification of PV-267 (Parent) or PV-3212 (Parent) and PV-623 (Metabolite) in mice blood samples and the linearity range was 2 to 2500 ng/mL for PV-267 (Parent), PV-3212 (Parent) and PV-623 (metabolite). The blood pharmacokinetic parameters for PV-267 and PV-3212 were calculated by using standard non-compartmental analysis (Phoenix software, version 6.4, Pharsight Corporation, Mountain View, Calif. 94040/USA) using the sparse sampling model and linear trapezoidal with linear interpolation calculation method. Pharmacokinetic Parameters for PV-623 (metabolite) were not calculated due to insufficient blood concentrations.

[3] = Pharmacokinetics of PV-267 in rats and mice
[4] = tested on: EAE in DRB1*15:01 transgenic mice; conditions: cited from earlier work
HLA-DRB1*15:01 = molecular target: T1, HLA-DRB1*15:01 (Homo sapiens, UniProt P01903+P01911); assay: HLA II binding assay (competitive, biotinylated reference peptide)
T1 construct: endogenous in cells; host or cells: EBV homozygous cell lines (human)

[5] = tested on: BC3 T cells + autologous hPBMCs from DRB1*15:01-positive MS patient; assay: Human cellular immunology assay (IFN-gamma ELISPOT); format: cell-based; conditions: inhibition of IFN-gamma response, FIG. 2
Procedure: After washing and blocking, autologous APCs (irradiated PBMCs) pretreated with different concentrations of the DRB1*15:01 inhibitors for 45 min were added on the plate (0.3−0.5×10^6 cells per well), followed by the addition of Ag or positive control using PHA (Sigma-Aldrich) or anti-human CD3 mAb (Bio X Cell; OKT3) along with BC3 T cells or enriched PBMC T cells (4,000-20,000 cells per well). Plates were incubated at 37° C. for 24 h, then washed and biotinylated anti-human IFN-γ mAb (Thermo Scientific; B133.5) was added at 4° C., overnight. After that, plates were incubated with Streptavidin AP (Invitrogen) and developed with BCIP/NBT Phosphatase substrate (KPL) after washing. After developing of the plates, image analysis of ELISPOT assays was performed on a Series 2 ImmunoSpot analyzer and software (CTL) as described previously (Kawamura, K., et al., (2008) J. Immunol. 181: 3202-3211).

[6] = Table 2, DRB1*15:01 binding, unit inferred, nM, read-out: Avg IC50
[7] = C57BL/6J, mouse, in vivo, ip, 10 mg/kg

Compound: CC(=O)N[C@H](C(=O)N[C@H](C(=O)N[C@@H](CCCNC(=N)N)C(=O)N1Cc2ccccc2C[C@H]1C(=O)N[C@@H](Cc1ccccc1)C(N)=O)C1CCCCC1)C(C)C [PV-267, Ac-V-(Chg)-R-(Tic)-F—NH2] (Ac-V[Chg]R[Tic]F-NH2)
autoreactivity to the Goodpasture antigen [1]: attenuates autoreactivity to the Goodpasture antigen | ratio of metabolite PV-623 to parent at 0.25 hr ([2]; 10 mg/kg IP, 0.25 hr): 0.61 and 0.67 | ratio of metabolite PV-623 to parent at 0.5 hr ([2]; 10 mg/kg IP, 0.5 hr): 0.73 | level at 0.25 h ([2]; C57BL/6J, mouse, plasma, ip, 10 mg/kg, parent, text b45, 0.25 hr, read-out: plasma concentration at 0.25 hr): 275 ng/mL | level at 0.5 h ([2]; C57BL/6J, mouse, plasma, ip, 10 mg/kg, parent, text b45, 0.5 hr, read-out: plasma concentration at 0.5 hr): 91.5 ng/mL | Cmax ([2]; C57BL/6J, mouse, whole blood, single IP 10 mg/kg, observed at 0.25 hr post dose, read-out: Parent peak blood concentration): 275 ng/mL | metabolism to the acid PV-623 ([2]; mouse PK studies): rapidly metabolized to PV-623 | Mean Plasma Concentration 0.25 hr ([2]; parent compound, 10 mg/kg IP, 0.25 hr): 275 ng/mL | Mean Plasma Concentration 0.5 hr ([2]; parent compound, 10 mg/kg IP, 0.5 hr): 91.5 ng/mL | in vivo conversion to C-terminal acid PV-623 [3]: significantly converted to the C-terminal acid PV-623 | efficacy in animal models of multiple sclerosis [4]: efficacy in animal models of multiple sclerosis | IC50 (HLA-DRB1*15:01; read-out: binding IC50): 2.5 nM

Compound: CC(=O)N[C@H](C(=O)N[C@H](C(=O)N[C@@H](CCCNC(=N)N)C(=O)N1Cc2ccccc2C[C@H]1C(=O)N[C@@H](Cc1ccccc1)C(=O)O)C1CCCCC1)C(C)C [PV-623, Ac-V-(Chg)-R-(Tic)-F—OH] (Ac-V[Chg]R[Tic]F-OH)
Mean Plasma Concentration 0.25 hr ([2]; acid metabolite PV-623 after PV-267 10 mg/kg IP, 0.25 hr): 169 ng/mL | Mean Plasma Concentration 0.5 hr ([2]; acid metabolite PV-623 after PV-267 10 mg/kg IP, 0.5 hr): 65.3 ng/mL | Mean Plasma Concentration 0.25 hr ([2]; acid metabolite PV-623 after PV-3212 10 mg/kg IP, 0.25 hr): 8.54 ng/mL | Mean Plasma Concentration 0.5 hr ([2]; acid metabolite PV-623 after PV-3212 10 mg/kg IP, 0.5 hr): 3.57 ng/mL | IC50 (HLA-DRB1*15:01; [6]): 26 nM

Compound: COCCOCCOCCOCCNC(=O)[C@H](Cc1ccccc1)NC(=O)[C@@H]1Cc2ccccc2CN1C(=O)[C@H](CCCNC(=N)N)NC(=O)[C@@H](NC(=O)[C@@H](NC(C)=O)C(C)C)C1CCCCC1 [PV-3213, Ac-V-(Chg)-R-(Tic)-F—NH(CH2CH2O)4CH3] (Ac-V[Chg]R[Tic]F-{NH(CH2CH2O)4Me})
potency compared to PV-267 in human cellular assay [5]: at least as potent as the unsubstituted PV-267

Compound: Ac-VVRFF-NH2 [PV-73, reference compound]
IC50 (HLA-DRB1*15:01; [6]): 2370 nM

Further lines, with some results ahead:

Cmax [2, 7]: 741 ng/mL | half-life [2, 7]: 3.23 h | level at 0.25 h [2, 7]: 741 ng/mL | level at 0.5 h [2, 7]: 195 ng/mL | metabolism to the acid PV-623 ([2]; mouse, in vivo): remarkably stable | Mean Plasma Concentration 0.25 hr ([2]; mouse, in vivo, ip, 10 mg/kg): 741 ng/mL | Mean Plasma Concentration 0.5 hr ([2]; mouse, in vivo, ip, 10 mg/kg): 195 ng/mL
Compound: COCCNC(=O)[C@H](Cc1ccccc1)NC(=O)[C@@H]1Cc2ccccc2CN1C(=O)[C@H](CCCNC(=N)N)NC(=O)[C@@H](NC(=O)[C@@H](NC(C)=O)C(C)C)C1CCCCC1 [PV-3212, Ac-V-(Chg)-R-(Tic)-F—NH(CH2CH2O)1CH3] (Ac-V[Chg]R[Tic]F-NHCH2CH2OMe)
potency compared to PV-267 in human cellular assay [5]: more potent than the simple amide (PV-267)

IC50 (HLA-DRB1*15:01; reference peptide, DRB1*1501, read-out: IC50): 14 nM
Compound: EAEQLRRAYLDGTGVE [A3 152-166, reference compound]
